Results: patent publication US4556660A, “N-(Bicyclic heterocyclyl)-4-piperidinamines” (Janssen Pharmaceutica N.V., priority 1983, dated 1985)
Read-outs that look alike come from different tables or passages of the source.

Tests used:
[1] = system: serotonin; compound 48/80-induced gastric lesions; test: Antagonistic activity on the effects of serotonin in the gastric lesion test (lesions induced by compound 48/80); format: in vivo, Male rats of a Wistar inbred strain
Experimental: Antagonistic activity on the effects of serotonin in the gastric lesion test
Male rats of a Wistar inbred strain, weighing 220-250 g, were starved overnight, water being available ad libitum. The test compounds were administered orally as a solution or as a suspension in aqueous medium. A control rat and a "blank" rat received the test compound. One hour later 5-[4-(diphenylmethyl)-1-piperazinylmethyl]-1-methyl-1H-benzimidazole-2-methanol was administered subcutaneously to all rats at the dose of 2.5 mg/kg.
Four hours after the intravenous injection of compound 48/80, the rats were decapitated and the stomachs were removed. Subsequently the stomachs were inspected for distension and contents (blood, fluid, food) and thoroughly rinsed. The macroscopic lesions were scored from 0 to +++, 0 corresponding to complete absence of visible lesions and the highest score corresponding to reddish rough patches covering more than half the glandular area.

[2] = system: compound 48/80-induced lethality; test: Protection of rats from compound 48/80-induced lethality; format: in vivo, Male rats of an inbred Wistar strain; conditions: Rattus norvegicus, 4 h, read-out: compound 48/80 lethality test rats-ED50
Experimental: Protection of rats from compound 48/80-induced lethality
The protection from compound 48/80-induced lethal circulatory collapse appears to be a simple way of evaluating quantitatively the antihistaminic activity of test compounds. Male rats of an inbred Wistar strain, weighing 240-260 g were used in the experiment. After overnight starvation the rats were transferred to conditioned laboratories (temp.=21±1° C., relative humidity-65±5%).
The rats were treated subcutaneously or orally with a test compound or with the solvent (NaCl solution, 0.9%). […] Survival after 4 hours is therefore considered to be a safe criterion of a protective effect of drug administration.
The ED50 -values of the compounds of formula (I) and the intermediates of formula (XVIII) are listed in the first column of table 1 and table 2. Said ED50 -values are the values in mg/kg body weight at which the tested compounds protect 50% of the tested animals against compound 48/80-induced lethality.

[3] = Rattus norvegicus, po; read-out: gastric lesion test ED50
[4] = Rattus norvegicus, po, read-out: gastric lesion test ED50

Row | SMILES | ED50 [1, 3] [mg/kg] | ED50 [2] [mg/kg] | ED50 [1, 4] [mg/kg]
1 | c1cnc(NCCN2CCC(Nc3nc4cccnc4n3Cc3ccco3)CC2)nc1 [Compound 28, 3-(2-furanylmethyl)-N-[1-[2-(2-pyrimidinylamino)ethyl]-4-piperidinyl]-3H-imidazo[4,5-b]pyridin-2-amine] | 0.63 | 0.04 | 
2 | Cl.Cl.Cl.Fc1ccc(Cn2c(NC3CCN(CCCNc4ccc(Cl)cn4)CC3)nc3ccccc32)cc1.O [Compound 30, N-[1-[3-[(5-chloro-2-pyridinyl)amino]propyl]-4-piperidinyl]-1-[(4-fluorophenyl)methyl]-1H-benzimidazol-2-amine trihydrochloride monohydrate] | 2.5 | 0.63 | 
3 | Nc1c(Cl)ncnc1NCCN1CCC(Nc2nc3ccccc3n2Cc2ccc(F)cc2)CC1 [Compound 31, 6-chloro-N^4-[2-[4-[[1-[(4-fluorophenyl)methyl]-1H-benzimidazol-2-yl]amino]-1-piperidinyl]ethyl]-4,5-pyrimidinediamine] | 1.25 | 0.16 | 
4 | Fc1ccc(Cn2c(NC3CCN(CCNc4cnccn4)CC3)nc3ccccc32)cc1 [Compound 33] | 2.5 | 0.16 | 
5 | Nc1cc(NCCN2CCC(Nc3nc4ccccc4n3Cc3ccc(F)cc3)CC2)nc(N)n1 [Compound 34] | 0.16 | 0.08 | 
6 | NC(=O)c1cccnc1NCCN1CCC(Nc2nc3ccccc3n2Cc2ccc(F)cc2)CC1 [Compound 36] | 0.16 | 0.08 | 
7 | Fc1ccc(Cn2c(NC3CCN(CCNc4ccc(Cl)nn4)CC3)nc3ccccc32)cc1 [Compound 37] | 1.25 | 0.08 | 
8 | Fc1ccc(Cn2c(NC3CCN(CCNc4ccc(Br)cn4)CC3)nc3ccccc32)cc1 [Compound 39] | 2.5 | 0.31 | 
9 | Fc1ccc(Cn2c(NC3CCN(CCNc4ncccc4Cl)CC3)nc3ccccc32)cc1 [Compound 40] | 0.31 | 0.16 | 
10 | NC(=O)c1ccc(NCCN2CCC(Nc3nc4ccccc4n3Cc3ccc(F)cc3)CC2)nc1 [Compound 42] |  | 0.04 | 0.08
11 | c1cnc(NCCN2CCC(Nc3nc4ccccc4n3Cc3ccco3)CC2)nc1 [Compound 43] |  | 0.16 | 0.04
12 | NC(=O)c1cccnc1NCCN1CCC(Nc2nc3ccccc3n2Cc2ccco2)CC1 [Compound 46] | 0.63 | 0.04 | 
13 | Fc1ccc(Cn2c(NC3CCN(CCNc4ncccc4Cl)CC3)nc3cccnc32)cc1 [Compound 47] | 0.31 | 0.08 | 
14 | Brc1ccc(NCCN2CCC(Nc3nc4ccccc4n3Cc3ccccc3)CC2)nc1 [Compound 49] | 2.5 | 0.31 | 
15 | Cc1ccc(Cn2c(NC3CCN(CCNc4ccc(Br)cn4)CC3)nc3ccccc32)cc1 [Compound 51] |  | 0.02 | 0.08
16 | CN(CCN1CCC(Nc2nc3ccccc3n2Cc2ccc(F)cc2)CC1)c1ccc(Cl)cn1 [Compound 56] | 1.25 | 0.31 | 
17 | Cl.Cl.Fc1ccc(Cn2c(NC3CCN(CCNc4ccnc(Cl)n4)CC3)nc3ccccc32)cc1.O [Compound 60, N-[1-[2-[(2-chloro-4-pyrimidinyl)amino]ethyl]-4-piperidinyl]-1-[(4-fluorophenyl)methyl]1H-benzimidazol-2-amine dihydrochloride monohydrate] | 2.5 | 0.31 | 
18 | Cc1cc(NCCN2CCC(Nc3nc4ccccc4n3Cc3ccc(F)cc3)CC2)nc(Cl)n1 [Compound 61, N-[1-[2-[(2-chloro-6-methyl-4-pyrimidinyl)amino]ethyl]-4-piperidinyl]-1-[(4-fluorophenyl)methyl]-1H-benzimidazol-2-amine] | 2.5 | 0.08 | 

Row | SMILES | ED50 [1, 3] [mg/kg] | ED50 [2] [mg/kg] | ED50 [1, 4] [mg/kg]
19 | Nc1nc(NCCN2CCC(Nc3nc4ccccc4n3Cc3ccc(F)cc3)CC2)ccc1[N+](=O)[O-] [Compound 63, N^6-[2-[4-[[1-[(4-fluorophenyl)methyl]1H-benzimidazol-2-yl]amino]-1-piperidinyl]ethyl]-3-nitro-2,6-pyridinediamine] | 2.5 | 0.31 | 
20 | c1ccc(Cn2c(NC3CCN(CCNc4ncccn4)CC3)nc3ccccc32)cc1 [Compound 65, 1-(phenylmethyl)-N-[1-[2-[(2-pyrimidinyl)amino]ethyl]-4-piperidinyl]-1H-benzimidazol-2-amine] | 0.31 | 0.08 | 
21 | Cc1ccc(Cn2c(NC3CCN(CCNc4ncccn4)CC3)nc3ccccc32)cc1 [Compound 67, 1-[(4-methylphenyl)methyl]-N-[1-[2-[(2-pyrimidinyl)amino]ethyl]-4-piperidinyl]-1H-benzimidazol-2-amine] |  | 0.16 | 0.63
22 | Clc1ccc(Cn2c(NC3CCN(CCNc4ncccn4)CC3)nc3ccccc32)cc1 [Compound 68, 1-[(4-chlorophenyl)methyl]-N-[1-[2-(2-pyrimidinylamino)ethyl]-4-piperidinyl]-1H-benzimidazol-2-amine] | 2.5 | 0.16 | 
23 | COc1ccc(Cn2c(NC3CCN(CCNc4ncccn4)CC3)nc3ccccc32)cc1 [Compound 69, 1-[(4-methoxyphenyl)methyl]-N-[1-[2-(2-pyrimidinylamino)ethyl]-4-piperidinyl]-1H-benzimidazol-2-amine] | 2.5 | 0.31 | 
24 | O=C(O)/C=C/C(=O)O.O=C(O)/C=C/C(=O)O.c1cnc(NCCN2CCC(Nc3nc4ccccc4n3Cc3cscn3)CC2)nc1 [Compound 72, N-[1-[2-(2-pyrimidinylamino)ethyl]-4-piperidinyl]-1-(4-thiazolylmethyl)-1H-benzimidazol-2-amine (E)-2-butenedioate (1:2)] |  | 0.02 | 0.08
25 | Oc1ccc(Cn2c(NC3CCN(CCNc4ncccn4)CC3)nc3ccccc32)cc1 [Compound 73, 4-[[2-[[1-[2-(2-pyrimidinylamino)ethyl]-4-piperidinyl]amino]-1H-benzimidazol-1-yl]methyl]phenol] | 2.5 | 2.5 | 
26 | CN(c1nc2ccccc2n1Cc1ccc(F)cc1)C1CCN(CCNc2ncccn2)CC1 [Compound 75] |  | 0.08 | 0.63
27 | Fc1ccc(Cn2c(NC3CCN(CCOc4ccc5ccccc5n4)CC3)nc3ccccc32)cc1 [Compound 77, 1-[(4-fluorophenyl)methyl]-N-[1-[2-(2-quinolinyloxy)ethyl]-4-piperidinyl]-1H-benzimidazol-2-amine] | 2.5 | 1.25 | 
28 | CSc1nccc(OCCN2CCC(Nc3nc4ccccc4n3Cc3ccc(F)cc3)CC2)n1 [Compound 79, 1-[(4-fluorophenyl)methyl]-N-[1-[2-[[2-(methylthio)-4-pyrimidinyl]oxy]ethyl]-4-piperidinyl]-1H-benzimidazol-2-amine] | 2.5 | 0.16 | 
29 | Fc1ccc(Cn2c(NC3CCN(CCOc4ncccn4)CC3)nc3ccccc32)cc1 [Compound 81, 1-[(4-fluorophenyl)methyl]-N-[1-[2-(2-pyrimidinyloxy)ethyl]-4-piperidinyl]-1H-benzimidazol-2-amine] | 0.63 | 0.16 | 
30 | O=C(O)/C=C/C(=O)O.O=C(O)/C=C/C(=O)O.c1cnc(OCCN2CCC(Nc3nc4ccccc4n3Cc3ccco3)CC2)nc1 [Compound 83, 1-(2-furanylmethyl)-N-[1-[2-(2-pyrimidinyloxy)ethyl]-4-piperidinyl]-1H-benzimidazol-2-amine (E)-2-butenedioate (1:2)] | 1.25 | 0.08 | 
31 | Fc1ccc(Cn2c(NC3CCN(CCOCc4ccccn4)CC3)nc3ccccc32)cc1.O=C(O)/C=C/C(=O)O.O=C(O)/C=C/C(=O)O [Compound 84, 1-[(4-fluorophenyl)methyl]-N-[1-[2-(2-pyridinylmethoxy)ethyl]-4-piperidinyl]-1H-benzimidazol-2-amine (E)-2-butenedioate (1:2)] | 2.5 | 0.08 | 
32 | O.O=c1nc(NCCN2CCC(Nc3nc4ccccc4n3Cc3ccc(F)cc3)CC2)[nH]cc1Cc1ccc(Cl)cc1 [Compound 85, 5-[(4-chlorophenyl)methyl]-2-[[2-[4-[[1-[(4-fluorophenyl)methyl]-1H-benzimidazol-2-yl]amino]-1-piperidinyl]ethyl]amino]-4(1H)-pyrimidinone monohydrate] | 2.5 | 1.25 | 
33 | CCCc1cc(O)nc(NCCN2CCC(Nc3nc4ccccc4n3Cc3ccc(F)cc3)CC2)n1 [Compound 86, 2-[[2-[4-[[1-[(4-fluorophenyl)methyl]-1H-benzimidazol-2-yl]amino]-1-piperidinyl]ethyl]amino]-6-propyl-4-pyrimidinol] | 2.5 | 0.31 | 
34 | O=c1ccnc(NCCN2CCC(Nc3nc4ccccc4n3Cc3ccc(F)cc3)CC2)[nH]1 [Compound 87] | 0.63 | 0.08 | 
35 | O=c1nc(NCCN2CCC(Nc3nc4ccccc4n3Cc3ccc(F)cc3)CC2)[nH]c2ccccc12 [Compound 88, 2-[[2-[4-[[1-[(4-fluorophenyl)methyl]-1H-benzimidazol-2-yl]amino]1-piperidinyl]ethyl]amino]-4(1H)-quinazolinone] | 2.5 | 0.63 | 
